In patent US20250230193A1, “CYCLIC COMPOUND HAVING SELECTIVE KRAS INHIBITORY EFFECT ON HRAS AND NRAS” (CHUGAI SEIYAKU KABUSHIKI KAISHA, priority 2022, published 2025):
Where a SMILES comes first, the peptide text is derived from it. Bridges are numbered along the chain shown (N, C = ends). [ ]: non-standard residue; d: D form. The star is where a group is joined. hPhe(3-Cl-4-CF3) = N[C@@H](CCc1ccc(C(F)(F)F)c(Cl)c1)C(=O)O; NPrPhe(4-CF3) = CCCN[C@@H](Cc1ccc(C(F)(F)F)cc1)C(=O)O; NMeGly(cPent) = CN[C@H](C(=O)O)C1CCCC1; Pro(4,4-F2) = O=C(O)[C@@H]1CC(F)(F)CN1; Hyp = O=C(O)[C@@H]1C[C@@H](O)CN1; NMeD = CN[C@@H](CC(=O)O)C(=O)O; NMeL = CN[C@@H](CC(C)C)C(=O)O; Morpholide = C1CN(*)CCO1; Ac5c = NC1(C(=O)O)CCCC1; Aze = O=C(O)[C@@H]1CCN1; Ac4c = NC1(C(=O)O)CCC1; NPrGly = CCCNCC(=O)O; Sar = CNCC(=O)O

Columns and labels:
[1] = molecular target: GDP-bound NRAS wild-type protein (Homo sapiens, UniProt P01111); assay: Binding to NRAS by surface plasmon resonance (SPR), Single Cycle Kinetics; conditions: KD ratio NRAS/KRAS, SPR
GDP-bound NRAS wild-type protein, sequence (P01111 whole entry): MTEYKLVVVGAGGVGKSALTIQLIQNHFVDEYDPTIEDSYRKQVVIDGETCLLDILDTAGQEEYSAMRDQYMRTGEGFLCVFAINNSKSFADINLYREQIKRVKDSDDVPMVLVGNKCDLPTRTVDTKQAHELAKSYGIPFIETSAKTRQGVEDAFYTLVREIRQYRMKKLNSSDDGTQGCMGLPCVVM

[2] = molecular target: GDP-bound HRAS wild-type protein (Homo sapiens, UniProt P01112); assay: Binding to HRAS by surface plasmon resonance (SPR), Single Cycle Kinetics; conditions: KD ratio HRAS/KRAS, SPR
GDP-bound HRAS wild-type protein, sequence (P01112 whole entry): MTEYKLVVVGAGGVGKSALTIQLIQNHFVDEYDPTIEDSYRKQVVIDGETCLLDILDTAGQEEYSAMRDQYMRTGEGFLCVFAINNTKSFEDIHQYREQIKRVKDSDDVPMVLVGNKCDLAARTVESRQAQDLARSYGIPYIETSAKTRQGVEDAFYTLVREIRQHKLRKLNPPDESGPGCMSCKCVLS

Row | Structure (SMILES) | NRAS/KRAS (ratio of KD for GDP-bound NRAS wild-type to KD for KRAS) [1] | HRAS/KRAS (ratio of KD for GDP-bound HRAS wild-type to KD for KRAS) [2]
1 | CCCN1CC(=O)NC2(CCCC2)C(=O)N(C)[C@@H](C2CCCC2)C(=O)N(C)[C@H](C(=O)N2CCOCC2)CC(=O)N(C)[C@@H](CC(C)C)C(=O)N[C@@H]([C@@H](C)CC)C(=O)N2CC[C@H]2C(=O)N(C)CC(=O)N(CCC)[C@@H](Cc2ccc(C(F)(F)F)cc2)C(=O)N(C)CC(=O)N[C@@H](CCc2ccc(C(F)(F)F)c(Cl)c2)C1=O [PP0315] ([NMeL]I[Aze][Sar][NPrPhe(4-CF3)][Sar][hPhe(3-Cl-4-CF3)][NPrGly][Ac5c][NMeGly(cPent)][NMeD]-Morpholide; lactam N-11) | B (a compound having 3 or more and less than 10 is denoted as B) | B (a compound having 3 or more and less than 10 is denoted as B)
2 | CC[C@H](C)[C@@H]1NC(=O)[C@H](CC(C)C)N(C)C(=O)C[C@@H](C(=O)N2CCOCC2)N(C)C(=O)[C@H](C2CCCC2)N(C)C(=O)C2(CCCC2)NC(=O)[C@@H]2CCCN2C(=O)[C@H](CCc2ccc(C(F)(F)F)c(Cl)c2)NC(=O)CN(C)C(=O)[C@H](Cc2ccc(C)cc2)N2CCCC[C@@H](C2=O)N(C)C(=O)CN(C)C1=O [PP0316] | C (A compound having a KD ratio of 0.1 or more and less than 3 is denoted as C) | B (a compound having 3 or more and less than 10 is denoted as B)
3 | CC[C@H](C)[C@@H]1NC(=O)[C@H](CC(C)C)N(C)C(=O)C[C@@H](C(=O)N2CCOCC2)N(C)C(=O)[C@H](C2CCCC2)N(C)C(=O)C2(CCCC2)NC(=O)[C@@H]2CCCN2C(=O)[C@H](CCc2ccc(C(F)(F)F)c(Cl)c2)NC(=O)CN(C)C(=O)[C@H](Cc2ccc(C)cc2)N2CCCCC[C@@H](C2=O)N(C)C(=O)CN(C)C1=O [PP0317] | B (a compound having 3 or more and less than 10 is denoted as B) | B (a compound having 3 or more and less than 10 is denoted as B)
4 | CC[C@H](C)[C@@H]1NC(=O)[C@H](CC(C)C)N(C)C(=O)C[C@@H](C(=O)N2CCOCC2)N(C)C(=O)[C@H](C2CCCC2)N(C)C(=O)C2(CCCC2)NC(=O)[C@@H]2CCCN2C(=O)[C@H](CCc2ccc(C(F)(F)F)c(Cl)c2)NC(=O)CN(C)C(=O)[C@H](Cc2ccc(C(F)(F)F)cc2)N2CCCC[C@@H](C2=O)N(C)C(=O)CN(C)C1=O [PP0318] | B (a compound having 3 or more and less than 10 is denoted as B) | B (a compound having 3 or more and less than 10 is denoted as B)
5 | CCCN1C(=O)CN(C)C(=O)CN(C)C(=O)[C@H]([C@@H](C)CC)NC(=O)[C@H](CC(C)C)N(C)C(=O)C[C@@H](C(=O)N2CCOCC2)NC(=O)[C@H](C2CCCC2)N(C)C(=O)C2(CCC2)NC(=O)[C@@H]2CCCN2C(=O)[C@H](CCc2ccc(C(F)(F)F)c(Cl)c2)NC(=O)CN(C)C(=O)[C@@H]1Cc1ccc(C(F)(F)F)cc1 [PP0320] ([NMeL]I[Sar][Sar][NPrPhe(4-CF3)][Sar][hPhe(3-Cl-4-CF3)]P[Ac4c][NMeGly(cPent)]D-Morpholide; lactam N-11) | B (a compound having 3 or more and less than 10 is denoted as B) | B (a compound having 3 or more and less than 10 is denoted as B)
6 | CCCN1C(=O)CN(C)C(=O)CN(C)C(=O)[C@H]([C@@H](C)CC)NC(=O)[C@H](CC(C)C)N(C)C(=O)C[C@@H](C(=O)N2CCOCC2)NC(=O)[C@H](C2CCCC2)N(C)C(=O)C2(CCCC2)NC(=O)[C@@H]2CC(F)(F)CN2C(=O)[C@H](CCc2ccc(C(F)(F)F)c(Cl)c2)NC(=O)CN(C)C(=O)[C@@H]1Cc1ccc(C(F)(F)F)cc1 [PP0321] ([NMeL]I[Sar][Sar][NPrPhe(4-CF3)][Sar][hPhe(3-Cl-4-CF3)][Pro(4,4-F2)][Ac5c][NMeGly(cPent)]D-Morpholide; lactam N-11) | B (a compound having 3 or more and less than 10 is denoted as B) | B (a compound having 3 or more and less than 10 is denoted as B)
7 | CCCN1C(=O)CN(C)C(=O)CN(C)C(=O)[C@H]([C@@H](C)CC)NC(=O)[C@H](CC(C)C)N(C)C(=O)C[C@@H](C(=O)N2CCOCC2)NC(=O)[C@H](C2CCCC2)N(C)C(=O)C2(CCC2)NC(=O)[C@@H]2CC(F)(F)CN2C(=O)[C@H](CCc2ccc(C(F)(F)F)c(Cl)c2)NC(=O)CN(C)C(=O)[C@@H]1Cc1ccc(C(F)(F)F)cc1 [PP0322] ([NMeL]I[Sar][Sar][NPrPhe(4-CF3)][Sar][hPhe(3-Cl-4-CF3)][Pro(4,4-F2)][Ac4c][NMeGly(cPent)]D-Morpholide; lactam N-11) | B (a compound having 3 or more and less than 10 is denoted as B) | C (A compound having a KD ratio of 0.1 or more and less than 3 is denoted as C)
8 | CCCN1C(=O)CN(C)C(=O)CN(C)C(=O)[C@H]([C@@H](C)CC)NC(=O)[C@H](CC(C)C)N(C)C(=O)C[C@@H](C(=O)N2CCOCC2)NC(=O)[C@H](C2CCCC2)N(C)C(=O)C2(CCCC2)NC(=O)[C@@H]2C[C@@H](OCC)CN2C(=O)[C@H](CCc2ccc(C(F)(F)F)c(Cl)c2)NC(=O)CN(C)C(=O)[C@@H]1Cc1ccc(C(F)(F)F)cc1 [PP0323] ([NMeL]I[Sar][Sar][NPrPhe(4-CF3)][Sar][hPhe(3-Cl-4-CF3)][Hyp](Et)[Ac5c][NMeGly(cPent)]D-Morpholide; lactam N-11) | B (a compound having 3 or more and less than 10 is denoted as B) | B (a compound having 3 or more and less than 10 is denoted as B)
9 | CCCN1C(=O)CN(C)C(=O)CN(C)C(=O)[C@H]([C@@H](C)CC)NC(=O)[C@H](CC(C)C)N(C)C(=O)C[C@@H](C(=O)N2CCOCC2)NC(=O)[C@H](C2CCCC2)N(C)C(=O)C2(CCC2)NC(=O)[C@@H]2C[C@@H](OCC)CN2C(=O)[C@H](CCc2ccc(C(F)(F)F)c(Cl)c2)NC(=O)CN(C)C(=O)[C@@H]1Cc1ccc(C(F)(F)F)cc1 [PP0324] ([NMeL]I[Sar][Sar][NPrPhe(4-CF3)][Sar][hPhe(3-Cl-4-CF3)][Hyp](Et)[Ac4c][NMeGly(cPent)]D-Morpholide; lactam N-11) | B (a compound having 3 or more and less than 10 is denoted as B) | B (a compound having 3 or more and less than 10 is denoted as B)
10 | CCCN1C(=O)CN(C)C(=O)CNC(=O)[C@H]([C@@H](C)CC)NC(=O)[C@H](CC(C)C)N(C)C(=O)C[C@@H](C(=O)N2CCOCC2)NC(=O)[C@H](C2CCCC2)N(C)C(=O)C2(CCCC2)NC(=O)[C@@H]2CCCN2C(=O)[C@H](CCc2ccc(C(F)(F)F)c(Cl)c2)NC(=O)CN(C)C(=O)[C@@H]1Cc1ccc(C(F)(F)F)cc1 [PP0325] ([NMeL]IG[Sar][NPrPhe(4-CF3)][Sar][hPhe(3-Cl-4-CF3)]P[Ac5c][NMeGly(cPent)]D-Morpholide; lactam N-11) | B (a compound having 3 or more and less than 10 is denoted as B) | B (a compound having 3 or more and less than 10 is denoted as B)
11 | CCCN1C(=O)CN(C)C(=O)CNC(=O)[C@H]([C@@H](C)CC)NC(=O)[C@H](CC(C)C)N(C)C(=O)C[C@@H](C(=O)N2CCOCC2)NC(=O)[C@H](C2CCCC2)N(C)C(=O)C2(CCC2)NC(=O)[C@@H]2CCCN2C(=O)[C@H](CCc2ccc(C(F)(F)F)c(Cl)c2)NC(=O)CN(C)C(=O)[C@@H]1Cc1ccc(C(F)(F)F)cc1 [PP0326] ([NMeL]IG[Sar][NPrPhe(4-CF3)][Sar][hPhe(3-Cl-4-CF3)]P[Ac4c][NMeGly(cPent)]D-Morpholide; lactam N-11) | B (a compound having 3 or more and less than 10 is denoted as B) | B (a compound having 3 or more and less than 10 is denoted as B)
12 | CCCN1C(=O)CN(C)C(=O)CNC(=O)[C@H]([C@@H](C)CC)NC(=O)[C@H](CC(C)C)N(C)C(=O)C[C@@H](C(=O)N2CCOCC2)NC(=O)[C@H](C2CCCC2)N(C)C(=O)C2(CCCC2)NC(=O)[C@@H]2CC(F)(F)CN2C(=O)[C@H](CCc2ccc(C(F)(F)F)c(Cl)c2)NC(=O)CN(C)C(=O)[C@@H]1Cc1ccc(C(F)(F)F)cc1 [PP0327] ([NMeL]IG[Sar][NPrPhe(4-CF3)][Sar][hPhe(3-Cl-4-CF3)][Pro(4,4-F2)][Ac5c][NMeGly(cPent)]D-Morpholide; lactam N-11) | B (a compound having 3 or more and less than 10 is denoted as B) | B (a compound having 3 or more and less than 10 is denoted as B)
13 | CCCN1C(=O)CN(C)C(=O)CNC(=O)[C@H]([C@@H](C)CC)NC(=O)[C@H](CC(C)C)N(C)C(=O)C[C@@H](C(=O)N2CCOCC2)NC(=O)[C@H](C2CCCC2)N(C)C(=O)C2(CCC2)NC(=O)[C@@H]2CC(F)(F)CN2C(=O)[C@H](CCc2ccc(C(F)(F)F)c(Cl)c2)NC(=O)CN(C)C(=O)[C@@H]1Cc1ccc(C(F)(F)F)cc1 [PP0328] ([NMeL]IG[Sar][NPrPhe(4-CF3)][Sar][hPhe(3-Cl-4-CF3)][Pro(4,4-F2)][Ac4c][NMeGly(cPent)]D-Morpholide; lactam N-11) | B (a compound having 3 or more and less than 10 is denoted as B) | B (a compound having 3 or more and less than 10 is denoted as B)
14 | CCCN1C(=O)CN(C)C(=O)CNC(=O)[C@H]([C@@H](C)CC)NC(=O)[C@H](CC(C)C)N(C)C(=O)C[C@@H](C(=O)N2CCOCC2)NC(=O)[C@H](C2CCCC2)N(C)C(=O)C2(CCCC2)NC(=O)[C@@H]2C[C@@H](OCC)CN2C(=O)[C@H](CCc2ccc(C(F)(F)F)c(Cl)c2)NC(=O)CN(C)C(=O)[C@@H]1Cc1ccc(C(F)(F)F)cc1 [PP0329] ([NMeL]IG[Sar][NPrPhe(4-CF3)][Sar][hPhe(3-Cl-4-CF3)][Hyp](Et)[Ac5c][NMeGly(cPent)]D-Morpholide; lactam N-11) | B (a compound having 3 or more and less than 10 is denoted as B) | C (A compound having a KD ratio of 0.1 or more and less than 3 is denoted as C)
